Biological target: T1, UGT1A1 (Homo sapiens, UniProt P22309)
T1 construct: using pooled human liver microsomes; tissue BD Gentest Co. H161; host or cells: pooled human liver microsomes
T1 sequence (P22309 26-533): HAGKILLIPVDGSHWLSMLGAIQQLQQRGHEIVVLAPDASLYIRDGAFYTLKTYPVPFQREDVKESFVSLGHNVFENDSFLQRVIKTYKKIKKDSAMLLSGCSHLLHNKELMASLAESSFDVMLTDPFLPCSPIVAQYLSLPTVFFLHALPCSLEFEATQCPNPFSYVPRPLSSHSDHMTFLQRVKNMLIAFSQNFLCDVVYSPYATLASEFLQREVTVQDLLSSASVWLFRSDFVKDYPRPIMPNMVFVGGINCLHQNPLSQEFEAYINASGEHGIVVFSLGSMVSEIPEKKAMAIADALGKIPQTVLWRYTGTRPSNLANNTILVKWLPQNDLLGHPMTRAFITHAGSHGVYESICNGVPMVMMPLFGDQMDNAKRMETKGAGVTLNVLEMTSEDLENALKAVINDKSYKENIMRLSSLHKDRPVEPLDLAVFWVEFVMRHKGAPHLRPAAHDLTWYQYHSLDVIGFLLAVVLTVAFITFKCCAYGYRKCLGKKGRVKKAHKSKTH
Test: UGT1A1 17β-estradiol 3-glucuronidation inhibition in pooled human liver microsomes
Assay type: in vitro ADME
Procedure: The inhibitory potencies (IC50 values) of corydaline were also determined with UGT assays in the presence and absence of corydaline (final concentrations of 1–1,000 μM with acetonitrile concentration less than 0.5% v/v) using pooled human liver microsomes. 17β-Estradiol 3-glucuronidation, trifluoperazine glucuronidation, propofol glucuronidation, and azidothymidine glucuronidation activities were determined as probe activities for UGT1A1, UGT1A4, UGT1A9, and UGT2B7, respectively, using LC/MS/MS. Incubation mixtures were prepared in a total volume of 100 μL, as follows: Pooled human liver microsomes (0.2 mg/mL for 17β-estradiol, trifluoperazine and azidothymidine; 0.1 mg/mL for propofol), 2 mM UDPGA, 25 μg/mL alamethicin, 10 mM MgCl2, 50 mM tris buffer (pH 7.4), UGT-isoform specific probe substrate (20 μM 17β-estradiol for UGT1A1, 5 μM trifluoperazine for UGT1A4, 10 μM propofol for UGT1A9, or 100 μM azidothymidine for UGT2B7), and various concentrations of corydaline (1−1000 μM). Reactions were initiated by addition of UDPGA, and incubations were carried out at 37 °C in a shaking water bath for 30 min. […]
Glucuronides produced from UGT isoform-specific substrates were respectively determined by LC/MS/MS. […] Quantification was performed by SRM of the [M+H]^+ ion for trifluoperazine glucuronide and azidothymidine glucuronide or [M−H]^− for 17β-estradiol 3-glucuronide and propofol glucuronide and the related product ion for each metabolite.
Reactions were initiated by addition of NADPH at 37 °C and stopped after 15 min by placement of the incubation tubes on ice and addition of ice-cold methanol (100 μL) containing an internal standard (2.0 μg/mL ^13C6-4-hydroxydiclofenac for diclofenac, 0.5 μg/mL d3-4-hydroxymephenytoin for mephenytoin, or 0.5 μg/mL d9-1-hydroxy-bufuralol for bufuralol). The incubation mixtures were centrifuged at 13,000 × g for 5 min, and aliquots (5 μL) of the supernatants were analyzed by LC/MS/MS. […] Aliquots (5 μL) were analyzed by LC/MS/MS. […]

- Ki (human liver microsomes, 10-80 μM 17β-estradiol, mixed competitive-noncompetitive equation): 57.6 ± 13 µM
- α (mix of competitive and noncompetitive mechanisms), UGT1A1 17β-estradiol 3-glucuronidation (mixed competitive-noncompetitive equation, nonlinear regression): 0.555
- IC50 (pooled human liver microsomes (H161), 20 μM 17β-estradiol, mean ± SD, n = 3): 137 ± 16.2 µM
SMILES: COc1cc2c(cc1OC)C1C(C)c3ccc(OC)c(OC)c3CN1CC2 (stereo not drawn) [Corydaline, 2,3,9,10-tetramethoxy-13-methyl-5,8,13,13a-tetrahydro-6H-isoquino[3,2-a]isoquinoline]

From publication PMC6264278, “Corydaline Inhibits Multiple Cytochrome P450 and UDP-Glucuronosyltransferase Enzyme Activities in Human Liver Microsomes” (Molecules, 2011)
